The target in series [1] is T1, Cannabinoid receptor 2 (Homo sapiens, UniProt P34972). Description: Displacement of [3H]-CP55940 from human CB2 receptor expressed in CHO cells by liquid scintillation counting. Format: cell-based.
The target in series [2] is T2, Cannabinoid receptor 1 (Homo sapiens, UniProt P21554). Description: Displacement of [3H]-CP55940 from human CB1 receptor expressed in CHO cells by liquid scintillation counting. The class given is cell-based. In general terms: Displacement assays read how much labelled ligand stays bound in the presence of the test substance.
Series [3] is filed under the species Homo sapiens. Briefly: Selectivity ratio of Ki for human CB2 receptor to Ki for human CB1 receptor.
A short description of series [4]: Lipophilicity, log D of the compound at pH 7.4. Conditions: buffer.
The nature of series [5]: physchem. The conditions noted are these: phosphate buffer, pH 7.4.
Description: Thermodynamic solubility of the compound in phosphate buffer at pH 7.4 after 24 hrs by HPLC analysis
The target of series [6] is T2, Cannabinoid receptor 1. Description: Agonist activity at human CB1 receptor expressed in CHO cells assessed as stimulation of [3H]-arachidonic acid release. The class given is functional, cell-based.
Series [7] addresses T1, Cannabinoid receptor 2. Description: Agonist activity at human CB2 receptor expressed in CHO cells assessed as inhibition of forskolin-stimulated cAMP accumulation after 20 mins. The class given is functional, cell-based.
Series [8] concerns the target Cannabinoid receptor 1 (Rattus norvegicus) (UniProt P20272). Description: (§1) Activation of CB1 receptor in Wistar rat prelimbic prefrontal cortex assessed as reduction of field excitatory postsynaptic potential amplitude after 20 mins. Format: tissue-based.
The target in series [9] is Cannabinoid receptor 1 (Rattus norvegicus, UniProt P20272). Described as §1. Format: tissue-based.
Series [10] has as its target Cannabinoid receptor 1 (Rattus norvegicus) (UniProt P20272). Briefly: Activation of CB1 receptor in Wistar rat prelimbic prefrontal cortex assessed as reduction of field excitatory postsynaptic potential amplitude after 20 mins relative to baseline. Format: tissue-based.
Series [11] is described as follows: physchem. The conditions noted are these: phosphate buffer, pH 4.
Description: Thermodynamic solubility of the compound in phosphate buffer at pH 4 after 24 hrs by HPLC analysis
Series [12] in a line: Apparent permeability from apical to basolateral side in human Caco2 cells by LC-MS/MS analysis. Conditions: Caco-2. A general note: Caco-2 cells form a polarised layer with tight junctions and transporters.
Series [13] can be described thus: physchem. The conditions noted are these: 0.01 M phosphate buffered saline, pH 7.4.
A short description of series [14]: physchem. Conditions: 0.01 M phosphate buffered saline, pH 7.4. This is another data set of the same source.
A short description of series [15]: Dissociation constant, pKa of the compound by fast UV-metric method. The class given is physicochemical.

Values after ≈ are worked out from the molar mass of the structure shown.

Cannabinoid receptor 1 (Rattus norvegicus, UniProt P20272), sequence (P20272 whole entry): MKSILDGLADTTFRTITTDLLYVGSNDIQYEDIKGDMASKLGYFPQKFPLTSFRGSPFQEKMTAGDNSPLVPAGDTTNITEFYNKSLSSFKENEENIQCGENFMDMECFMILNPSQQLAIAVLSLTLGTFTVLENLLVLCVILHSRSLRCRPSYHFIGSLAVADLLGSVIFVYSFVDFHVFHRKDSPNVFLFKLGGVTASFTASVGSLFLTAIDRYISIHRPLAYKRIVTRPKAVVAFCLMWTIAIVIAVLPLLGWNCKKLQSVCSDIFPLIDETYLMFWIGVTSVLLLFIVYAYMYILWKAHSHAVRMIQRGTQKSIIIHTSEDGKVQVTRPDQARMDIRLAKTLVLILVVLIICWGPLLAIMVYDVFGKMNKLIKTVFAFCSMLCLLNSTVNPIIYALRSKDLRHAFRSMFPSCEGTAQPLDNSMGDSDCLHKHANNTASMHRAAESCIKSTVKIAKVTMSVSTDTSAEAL
Cannabinoid receptor 1 (Rattus norvegicus), sequence (P20272 whole entry): as above
T1 sequence (P34972 whole entry): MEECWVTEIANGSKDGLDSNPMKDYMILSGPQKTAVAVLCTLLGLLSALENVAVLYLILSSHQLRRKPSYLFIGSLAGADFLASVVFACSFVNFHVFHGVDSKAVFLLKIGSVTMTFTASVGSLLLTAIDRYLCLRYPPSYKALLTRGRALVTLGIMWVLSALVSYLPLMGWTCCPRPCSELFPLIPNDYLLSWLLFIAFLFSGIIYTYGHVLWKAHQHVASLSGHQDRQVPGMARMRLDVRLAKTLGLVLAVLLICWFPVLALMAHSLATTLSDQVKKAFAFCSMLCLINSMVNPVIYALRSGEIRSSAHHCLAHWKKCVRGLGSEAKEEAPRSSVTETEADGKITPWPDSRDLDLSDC
T2 sequence (P21554 whole entry): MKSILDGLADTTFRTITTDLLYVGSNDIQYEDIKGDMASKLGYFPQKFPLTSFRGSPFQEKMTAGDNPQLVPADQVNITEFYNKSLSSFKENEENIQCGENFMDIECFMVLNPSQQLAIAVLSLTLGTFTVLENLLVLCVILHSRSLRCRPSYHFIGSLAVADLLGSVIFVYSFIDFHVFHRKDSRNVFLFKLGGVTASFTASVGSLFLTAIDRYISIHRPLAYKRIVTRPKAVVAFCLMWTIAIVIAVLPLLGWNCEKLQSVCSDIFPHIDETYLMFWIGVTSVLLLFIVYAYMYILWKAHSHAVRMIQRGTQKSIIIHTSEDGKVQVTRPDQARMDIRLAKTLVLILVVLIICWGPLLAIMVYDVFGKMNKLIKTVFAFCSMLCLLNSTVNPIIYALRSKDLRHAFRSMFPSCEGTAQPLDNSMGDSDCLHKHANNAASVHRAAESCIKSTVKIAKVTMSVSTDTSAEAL

As to `CCCCCn1cc(C(=O)c2ccccc2-c2ccccc2)c2ccccc21`, the Ki in series [1] is 7.94 nM; in [2], 6.31 nM. In addition, the Ratio Ki in series [3] was determined as 1. For the same compound, in series [4], the pH-dependent lipophilicity (logD) was more than 5. This compound also yielded a thermodynamic solubility at 24 h in series [5] of less than 1 µM.
Regarding `CCCCCn1cc(C(=O)Nc2cccc3ccccc23)c2ccccc21`, the figures for the inhibitory constant (Ki) in series [1] and in series [2] were 100 nM and 1.26 nM, respectively. Further, in series [3], the Ratio Ki was 79. Besides, the figures for the concentration for a half-maximal effect (EC50) in series [6] and in series [7] were 10 nM and 7.94 nM, respectively. In [4], this compound registered a logD of more than 5. The inhibition entry in [8] was “Dose-dependent effect”. In addition, the IC50 in series [9] is 450 nM. For the same compound, the Emax in [10] was 78.1%. Also, the thermodynamic solubility at 24 h in [5] and in [11] was less than 1 µM in each case.
With `COCCn1cc(C(=O)c2cccc(-c3ccccc3)c2)c2ccccc21`, the inhibitory constant (Ki) was more than 1000 nM in series [1] and 251 nM in series [2]. In addition, the Ratio Ki in series [3] is more than 4. This compound gave a logD in [4] of 4.4. In addition, the solubility (thermodynamic) at 24 h in series [5] and in [11] was less than 1 µM in each case.
With `COCCn1cc(C(=O)Nc2cccc3ccccc23)c2ccccc21`, the Ki in series [1] is 251 nM; in series [2], more than 1000 nM. Further, in series [3], the Ratio Ki is less than 0.3. For the same compound, the EC50 in [7] was 6.31 nM. The logD in series [4] was found to be 2.94. Besides, the Papp A→B in [12] stood at 27 ×10⁻⁶ cm/s. Further, the thermodynamic solubility at 24 h in series [5] and in series [11] was 3 µM (≈ 1.03 µg/mL) each time. Besides, the solubility (kinetic) in series [13] amounted to 30 µM (≈ 10.3 µg/mL); in series [14], 100 µM (≈ 34.4 µg/mL).
On to `CCCCCn1cc(C(=O)c2ccc(-c3ccccc3)cc2)c2ccccc21`, for which the inhibition constant Ki was 39.8 nM in series [1] and 31.6 nM in series [2]. The Ratio Ki in [3] worked out at 1. This compound also yielded a logD in series [4] of more than 5. For the same compound, the thermodynamic solubility at 24 h in series [5] and in series [11] was less than 1 µM throughout.
Turning to `CCCCCCC(C)(C)c1cc(O)c2c(c1)OC(C)(C)C1CCC(=O)CC21` (stereo not given) [NABILONE], the results for the Ki in [1] and in series [2] were 6.31 nM and 3.98 nM, respectively. Further, the Ratio Ki in [3] was 1.7. In addition, the EC50 in series [7] is 15.8 nM. In [4], this compound came in with a logD of more than 5. In [15], this compound showed a pKa of 10.6. For the same compound, the solubility (thermodynamic) at 24 h in [5] and in [11] was less than 1 µM throughout.
`COCCn1cc(C(=O)c2cccc3ccccc23)c2ccncc21`: the Ki in series [1] is 25.1 nM; in series [2] it was more than 1000 nM. Also, the Ratio Ki in series [3] is less than 0.03. Besides, the concentration giving a half-maximal response (EC50) in series [6] is more than 1000 nM. This compound registered a logD in [4] of 3.13. The compound also yielded a pKa in [15] of 5.8.
In the case of `CCCCCn1cc(C(=O)c2cccc(-c3ccccc3)c2)c2ccccc21`, the values for the inhibitory constant (Ki) in series [1] and in series [2] were 63.1 nM and 7.94 nM, respectively. Further, in [3], the Ratio Ki came to 9. Moreover, the logD in series [4] was more than 5. The thermodynamic solubility at 24 h in [5] is less than 1 µM.
Consider `CCCCCn1cc(C(=O)c2cccc3ccccc23)c2cnccc21`, for which the Ki was 50.1 nM in [1] and 316 nM in series [2]. In addition, the EC50 in [6] is 50.1 nM. Besides, the pKa in [15] was 6.49.
`CCCCCCC(C)(C)c1ccc([C@@H]2C[C@H](O)CC[C@H]2CCCO)c(O)c1` [CP-55940] showed a log distribution coefficient (logD) in series [4] of more than 5. In series [15], this compound showed a pKa of 11.2. The Papp A→B in [12] stood at 5.7 ×10⁻⁶ cm/s. The solubility (thermodynamic) at 24 h in series [5] and in series [11] was 2 µM (≈ 0.753 µg/mL) each time. The kinetic solubility in series [13] is 30 µM (≈ 11.3 µg/mL); in [14] it was 100 µM (≈ 37.7 µg/mL).
For `COCCn1cc(C(=O)c2ccccc2-c2ccccc2)c2ccccc21`, the results for the inhibition constant (Ki) in [1] and in [2] were 631 nM and 251 nM, respectively. Also, the Ratio Ki in series [3] came to 3. Besides, in [4], the logD was 3.31. The thermodynamic solubility at 24 h in series [5] and in series [11] was less than 1 µM each time.
As for `CCCCCn1cc(C(=O)c2cccc3ccccc23)c2cccnc21`, the Ki in series [1] was 50.1 nM; in [2] it was 12.6 nM. Further, in series [3], the Ratio Ki was 4. The 50% effective concentration (EC50) in series [6] is 31.6 nM; in series [7], 158 nM. Also, the logD in series [4] is more than 5. In [15], the pKa is less than 2. Besides, the inhibition entry in series [8] was “Dose-dependent effect”. In addition, in series [9], the IC50 was determined as 520 nM. In series [10], the maximal response (Emax) stood at 67.1%. Besides, the solubility (thermodynamic) at 24 h in [5] and in [11] was 1 µM (≈ 0.342 µg/mL) each time.
In the case of `COCCn1cc(C(=O)c2cccc3ccccc23)c2cccnc21`, the Ki in series [1] is 200 nM; in series [2], 501 nM. Besides, the Ratio Ki in [3] was 0.4. For the same compound, the half-maximal effective concentration (EC50) in series [6] and in series [7] was more than 1000 nM in each case. Moreover, the logD in series [4] is 3.57. The compound also returned a pKa in [15] of less than 2. In [12], the apical-to-basolateral permeability (Papp A→B) was determined as 26 ×10⁻⁶ cm/s. Moreover, the solubility (thermodynamic) at 24 h in series [5] and in series [11] was 3 µM (≈ 0.991 µg/mL) in each case. The kinetic solubility in series [13] worked out at 10 µM (≈ 3.3 µg/mL); in series [14] it was 65 µM (≈ 21.5 µg/mL).
With `CCCCCn1cc(C(=O)c2cccc3ccccc23)c2ccncc21`, the figures for the inhibition constant Ki in series [1] and in series [2] were 501 nM and 158 nM, respectively. In addition, the Ratio Ki in series [3] came out at 3. The EC50 in [6] is 100 nM. In series [4], the logD came out at 4.72. For the same compound, the pKa in series [15] was 5.83. Further, the apparent permeability from apical to basolateral (Papp A→B) in series [12] amounted to 13 ×10⁻⁶ cm/s. In [5], this compound returned a solubility (thermodynamic) at 24 h of 4 µM (≈ 1.37 µg/mL). Further, the kinetic solubility in series [13] is 3 µM (≈ 1.03 µg/mL); in series [14], 10 µM (≈ 3.42 µg/mL).
Compound `Cc1c(C(=O)c2cccc3ccccc23)c2cccc3c2n1[C@H](CN1CCOCC1)CO3` [WIN-552122] returned a pH-dependent lipophilicity (logD) in series [4] of 4.08. This compound came in with a pKa in [15] of 4.14. Besides, the apical-to-basolateral permeability (Papp A→B) in [12] came out at 12.1 ×10⁻⁶ cm/s. The thermodynamic solubility at 24 h in series [5] amounted to 5 µM (≈ 2.13 µg/mL); in series [11], 8 µM (≈ 3.41 µg/mL). Also, the results for the solubility (kinetic) in series [13] and in series [14] were 3 µM (≈ 1.28 µg/mL) and 20 µM (≈ 8.53 µg/mL), respectively.
For `COCCn1cc(C(=O)Nc2ccc3ccccc3c2)c2ccccc21`, the Ki in series [1] is 316 nM; in [2], more than 1000 nM. For the same compound, in series [3], the Ratio Ki was less than 0.3. This compound also came in with a logD in series [4] of 3.69. Moreover, the solubility (thermodynamic) at 24 h in series [5] and in series [11] was less than 1 µM each time.
Regarding `CCCCCn1cc(C(=O)Nc2ccc3ccccc3c2)c2ccccc21`, the Ki was 631 nM in series [1] and 63.1 nM in [2]. Also, the Ratio Ki in series [3] came to 10. Further, the values for the half-maximal effective concentration (EC50) in series [6] and in series [7] were more than 1000 nM and 5010 nM, respectively. The compound also registered a pH-dependent lipophilicity (logD) in series [4] of more than 5. In addition, the solubility (thermodynamic) at 24 h in series [5] and in [11] was less than 1 µM throughout.
Turning to `CCCCCn1cc(C(=O)c2cccc3ccccc23)c2ccccc21`, the Ki is 6.31 nM in series [1] and 2 nM in series [2]. The Ratio Ki in series [3] amounted to 3. Moreover, the concentration giving a half-maximal response (EC50) in series [6] and in series [7] was 5.01 nM in each case. In [4], the log distribution coefficient (logD) is more than 5. The inhibition entry in [8] is “Dose-dependent effect”. Further, the 50% inhibitory concentration (IC50) in series [9] amounted to 280 nM. Moreover, in [10], the maximal effect (Emax) is 73.5%. The thermodynamic solubility at 24 h in [5] and in [11] was less than 1 µM in each case.
Consider `COCCn1cc(C(=O)c2ccc(-c3ccccc3)cc2)c2ccccc21`, for which the inhibition constant Ki in series [1] and in [2] was more than 1000 nM throughout. For the same compound, in [4], the logD was 4.5. Besides, the thermodynamic solubility at 24 h in series [5] and in series [11] was less than 1 µM in each case.

As usually defined, the Ki is a measure of affinity in units of concentration, obtained from inhibition or displacement. A low value points to higher affinity. One may read the logD as the decadic logarithm of the distribution of all forms, ionised or not, between an organic phase and buffer at a given pH. A lower logD goes with a more hydrophilic compound. In general, thermodynamic solubility refers to the concentration in solution at equilibrium with solid. For orientation: EC50 means the concentration giving half of the maximal effect. One may read the IC50 as the concentration at which inhibition is half-maximal. The term Emax denotes the maximal effect, on the per cent scale that the assay sets. A word on the Papp A→B: it is the apparent permeability from the apical to the basolateral side of a cell layer. Usually kinetic solubility stands for solubility judged after dilution from a stock solution rather than from solid. By pKa is commonly meant the negative logarithm of the acid dissociation constant. Lower therefore signals a group that gives up its proton readily.
